Laboratory results published in patent US10865191B2, “Heterocyclic compounds useful as modulators of TNF alpha” (BRISTOL-MYERS SQUIBB COMPANY, priority 2015, dated 2020).

Molecular target: TNFα (Homo sapiens, UniProt P01375)
Assay: TNF induced HEK-Blue assay (NF-kB-driven secreted alkaline phosphatase reporter)
Format: cell-based
Details: TNF induced HEK-Blue assay IC50 value, TNFα 0.5 ng/mL, HEK-Blue-CD40L cells, 18 h
Procedure, shortened: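 HEK-Blue-CD40L cells (NF-kB-driven SEAP reporter), 20,000/well, added after 30 min pre-incubation of compound (0.004–25 μM final) with TNFα 0.5 ng/mL final at 37 °C; 18 h incubation. SEAP read with QUANTI-Blue at 620 nm; IC50 from 4-parameter logistic fit, normalized to unstimulated and stimulated DMSO controls.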

Chain of TNFα (P01375 77-233 limits assumed): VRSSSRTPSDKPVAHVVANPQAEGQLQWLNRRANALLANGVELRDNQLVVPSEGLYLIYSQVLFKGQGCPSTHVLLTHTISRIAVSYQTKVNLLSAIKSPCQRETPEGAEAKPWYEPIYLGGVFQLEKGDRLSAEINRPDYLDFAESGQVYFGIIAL

IC50 [nM] | Compound
10000 to 25000 | CC(Nc1c(Cl)cnc2cc(F)c(-c3cnc(C(C)(C)O)nc3)cc12)c1ccccc1F (stereo not shown) [Example 248, 2-(5-(3-chloro-7-fluoro-4-((1-(2-fluorophenyl)ethyl)amino)quinolin-6-yl)pyrimidin-2-yl)propan-2-ol]

Same assay, conditions: TNFα 0.5 ng/mL, HEK-Blue-CD40L cells, 18 h; read-out: TNF induced HEK-Blue assay IC50 value

Compound | IC50 [nM]
Cc1nc2cc(F)c(-c3cnc(C(C)(C)O)nc3)nc2c(N[C@@H](c2cc(C(O)CO)ccc2F)C(F)F)c1Cl (stereo partly drawn) [Example 491, 1-(3-((S)-1-((3-chloro-7-fluoro-6-(2-(2-hydroxypropan-2-yl)pyrimidin-5-yl)-2-methyl-1,5-naphthyridin-4-yl)amino)-2,2-difluoroethyl)-4-fluorophenyl)ethane-1,2-diol] | < 1000
CC(Nc1c(Cl)cnc2ccc(-c3cnc(C(C)(C)O)nc3)cc12)c1nc(C(N)=O)ccc1F (racemic) [Example 28, 6-(1-((3-chloro-6-(2-(2-hydroxypropan-2-yl)pyrimidin-5-yl)quinolin-4-yl)amino)ethyl)-5-fluoropicolinamide] | < 1000
Cc1ccc(C)c(Nc2c(Cl)c(N)nc3ccc(-c4cnc(NCC(O)CO)nc4)cc23)c1 (racemic) [Example 73, 3-((5-(2-amino-3-chloro-4-((2,5-dimethylphenyl)amino)quinolin-6-yl)pyrimidin-2-yl)amino)propane-1,2-diol] | 1000 to 10000
C[C@@H](Nc1c(Cl)cnc2ccccc12)c1cc(-c2cncc(N)c2)ccc1F [Example 511, (R)—N-(1-(5-(5-aminopyridin-3-yl)-2-fluorophenyl)ethyl)-3-chloroquinolin-4-amine] | < 1000
CC(C)(O)c1ncc(-c2nc3c(N[C@H](c4cc(CO)ccc4F)C(F)F)c(Cl)cnc3cc2F)cn1 [Example 486, (R)-2-(5-(7-chloro-8-((2,2-difluoro-1-(2-fluoro-5-(hydroxymethyl)phenyl)ethyl)amino)-3-fluoro-1,5-naphthyridin-2-yl)pyrimidin-2-yl)propan-2-ol] | < 1000
Cc1nc2ccc(-c3cnc(N4CCN(CC(=O)O)CC4)nc3)cc2c(N[C@H](C)c2cc(C(N)=O)ccc2F)c1Cl [Example 389, (R)-2-(4-(5-(4-((1-(5-carbamoyl-2-fluorophenyl)ethyl)amino)-3-chloro-2-methylquinolin-6-yl)pyrimidin-2-yl)piperazin-1-yl)acetic acid] | < 1000
CCc1ncc(-c2ccc3ncc(Cl)c(N[C@H](C)c4ccccc4F)c3c2)cn1 [Example 223, (R)-3-chloro-6-(2-ethylpyrimidin-5-yl)-N-(1-(2-fluorophenyl)ethyl) quinolin-4-amine] | 10000 to 25000
NC1(C(=O)O)CCN(c2ncc(-c3ccc4ncc(Cl)c(N[C@@H](c5ccccc5F)C(F)F)c4c3)cn2)CC1 [Example 75, (S)-4-amino-1-(5-(3-chloro-4-((2,2-difluoro-1-(2-fluorophenyl)ethyl)amino)quinolin-6-yl)pyrimidin-2-yl)piperidine-4-carboxylic acid] | < 1000
Cc1nc2ccc(-c3cnc(C(C)(C)O)nc3)cc2c(-c2ccccc2-c2ccccc2)c1Cl [Example 353, 2-(5-(4-([1,1′-biphenyl]-2-yl)-3-chloro-2-methylquinolin-6-yl)pyrimidin-2-yl)propan-2-ol] | 1000 to 10000
CC(C)(O)c1ccc(-c2ccc3ncc(Cl)c(NC(CCF)c4ccccc4F)c3c2)cc1 (racemic) [Example 232, 2-(4-(3-chloro-4-((3-fluoro-1-(2-fluorophenyl)propyl)amino)quinolin-6-yl)phenyl)propan-2-ol] | < 1000
C[C@@H](Nc1c(Cl)cnc2ccccc12)c1cc(-c2ccccc2N)ccc1F [Example 547, (R)—N-(1-(2′-amino-4-fluoro-[1,1′-biphenyl]-3-yl)ethyl)-3-chloroquinolin-4-amine] | 1000 to 10000
Cc1cnc2ccc(-c3cnc(C(C)(C)O)nc3)cc2c1N[C@H](C)c1ccccc1F [Example 240, (R)-2-(5-(4-((1-(2-fluorophenyl)ethyl)amino)-3-methylquinolin-6-yl)pyrimidin-2-yl)propan-2-ol] | < 1000
CCc1ccc(-c2ccc(F)c([C@@H](C)Nc3c(Cl)cnc4ccccc34)c2)cn1 [Example 508, (R)-3-chloro-N-(1-(5-(6-ethylpyridin-3-yl)-2-fluorophenyl)ethyl)quinolin-4-amine] | < 1000

The next lines start with the values.

IC50 [nM] | Compound
10000 to 25000 | Cc1nc2ccc(-c3cnc(C(C)(C)O)nc3)cc2c(N[C@H](C)c2cc(C(=O)O)ccc2F)c1Cl [Example 407, (R)-3-(1-((3-chloro-6-(2-(2-hydroxypropan-2-yl)pyrimidin-5-yl)-2-methylquinolin-4-yl)amino)ethyl)-4-fluorobenzoic acid]
1000 to 10000 | C[C@@H](Nc1c(Cl)cnc2ccccc12)c1cc(-c2cnc(C(C)(C)O)nc2)ccc1F [Example 469, (R)-2-(5-(3-(1-((3-chloroquinolin-4-yl)amino)ethyl)-4-fluorophenyl)pyrimidin-2-yl)propan-2-ol]
10000 to 25000 | C[C@@H](Nc1c(Cl)cnc2ccc(-c3ccc(C(=O)NCCCCN)nc3)cc12)c1ccccc1F [Example 101, (R)—N-(4-aminobutyl)-5-(3-chloro-4-((1-(2-fluorophenyl)ethyl)amino)quinolin-6-yl)picolinamide]
1000 to 10000 | Cc1cc(-c2ccc(F)c([C@@H](C)Nc3c(Cl)cnc4ccccc34)c2)cnn1 [Example 477, (R)-3-chloro-N-(1-(2-fluoro-5-(6-methylpyridazin-4-yl)phenyl)ethyl)quinolin-4-amine]
< 1000 | CCN(Cc1c(Cl)cnc2ccc(-c3cnc(C(C)(C)O)nc3)cc12)c1ccccc1F [Example 68, 2-(5-(3-chloro-4-((ethyl(2-fluorophenyl)amino)methyl)quinolin-6-yl)pyrimidin-2-yl)propan-2-ol]
< 1000 | Cc1nc2ccc(-c3cnc(C(C)(C)O)nc3)cc2c(N[C@@H](c2cc(C(N)=O)ccc2F)C(F)F)c1Cl [Example 390, (S)-3-(1-((3-chloro-6-(2-(2-hydroxypropan-2-yl)pyrimidin-5-yl)-2-methylquinolin-4-yl)amino)-2,2-difluoroethyl)-4-fluorobenzamide]
10000 to 25000 | CC(C)(O)c1ncc(-c2ccc3ncc(Cl)c(NCc4ccc(C(F)(F)F)cc4)c3c2)cn1 [Example 145, 2-(5-(3-chloro-4-(4-(trifluoromethyl)benzylamino)quinolin-6-yl)pyrimidin-2-yl)propan-2-ol]
< 1000 | CC(Nc1c(Cl)cnc2cc(F)c(-c3ccc(C(O)C4CC4)cc3)cc12)c1ccccc1F (stereo not shown) [Example 261, (4-(3-chloro-7-fluoro-4-((1-(2-fluorophenyl)ethyl)amino)quinolin-6-yl)phenyl)(cyclopropyl) methanol]
< 1000 | Cc1nc2c(F)cc(-c3cnc(C(C)(C)O)nc3)cc2c(NC(C)c2ccccc2)c1Cl (stereo not shown) [Example 306, 2-(5-(3-chloro-8-fluoro-2-methyl-4-((1-phenylethyl)amino)quinolin-6-yl)pyrimidin-2-yl)propan-2-ol]
10000 to 25000 | C[C@@H](Nc1c(Cl)cnc2ccccc12)c1ccccc1C(F)(F)F [Example 463, 3-chloro-N-(1-(2-(trifluoromethyl)phenyl)ethyl)quinolin-4-amine]
1000 to 10000 | C[C@@H](Nc1c(Cl)cnc2ccc(-c3cnc(C(C)(C)O)nc3)cc12)c1cc(-c2cnn(CC(=O)O)c2)ccc1F [Example 346, (R)-2-(4-(3-(1-((3-chloro-6-(2-(2-hydroxypropan-2-yl)pyrimidin-5-yl)quinolin-4-yl)amino)ethyl)-4-fluorophenyl)-1H-pyrazol-1-yl)acetic acid]
